How the values were obtained:
Am2136 WT = molecular target: T1, Am2136 WT (Akkermansia muciniphila, UniProt B2UPR7); assay: Nucleotide binding affinity by intrinsic fluorescence
T1 construct: The coding region (residue Q20-L756) of Am2136 without signal peptide was based on UniProt; 6XHis (N); made in house; host or cells: E. coli BL21 (DE3)
Description: The nucleotide binding ability was determined on Fluorescence Spectrometer Duetta (HORIBA) by measuring the change of peak intensity. The fluorescence was excited at 286 nm and emitted at 336 nm. And the measurement was processed under 400 V voltage with 2.5 nm excitation slit and 5 nm emission slit. […] The sample was incubated at 4°C for 5 min before testing.

Am2136 Y327F+Y331F = molecular target: T2, Am2136 Y327F+Y331F (Akkermansia muciniphila, UniProt B2UPR7, Y327F/Y331F); assay: GDP regulated enzyme activity assay, mutant; conditions: 1 mM GDP, substrate pNP-β-GlcNAc
T2 sequence (B2UPR7 20-756 Y327F/Y331F): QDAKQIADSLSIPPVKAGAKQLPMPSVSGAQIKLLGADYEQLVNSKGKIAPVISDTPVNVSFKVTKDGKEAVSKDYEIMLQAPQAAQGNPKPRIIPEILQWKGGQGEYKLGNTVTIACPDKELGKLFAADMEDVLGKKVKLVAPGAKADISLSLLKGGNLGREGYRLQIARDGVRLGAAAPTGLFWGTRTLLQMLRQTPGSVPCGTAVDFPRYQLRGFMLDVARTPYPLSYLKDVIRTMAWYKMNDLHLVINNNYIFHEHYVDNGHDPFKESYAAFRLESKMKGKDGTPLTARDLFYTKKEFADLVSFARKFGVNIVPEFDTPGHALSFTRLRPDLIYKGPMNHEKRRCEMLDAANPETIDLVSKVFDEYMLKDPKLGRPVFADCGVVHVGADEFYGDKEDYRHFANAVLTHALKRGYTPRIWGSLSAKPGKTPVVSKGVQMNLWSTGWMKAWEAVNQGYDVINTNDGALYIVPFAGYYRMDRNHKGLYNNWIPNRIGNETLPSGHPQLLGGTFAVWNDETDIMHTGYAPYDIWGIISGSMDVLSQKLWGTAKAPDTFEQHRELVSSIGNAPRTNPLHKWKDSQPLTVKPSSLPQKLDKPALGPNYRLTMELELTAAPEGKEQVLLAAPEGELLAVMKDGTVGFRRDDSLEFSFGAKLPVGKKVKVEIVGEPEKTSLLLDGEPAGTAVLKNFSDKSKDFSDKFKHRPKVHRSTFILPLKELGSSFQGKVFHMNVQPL

T1 sequence (B2UPR7 20-756): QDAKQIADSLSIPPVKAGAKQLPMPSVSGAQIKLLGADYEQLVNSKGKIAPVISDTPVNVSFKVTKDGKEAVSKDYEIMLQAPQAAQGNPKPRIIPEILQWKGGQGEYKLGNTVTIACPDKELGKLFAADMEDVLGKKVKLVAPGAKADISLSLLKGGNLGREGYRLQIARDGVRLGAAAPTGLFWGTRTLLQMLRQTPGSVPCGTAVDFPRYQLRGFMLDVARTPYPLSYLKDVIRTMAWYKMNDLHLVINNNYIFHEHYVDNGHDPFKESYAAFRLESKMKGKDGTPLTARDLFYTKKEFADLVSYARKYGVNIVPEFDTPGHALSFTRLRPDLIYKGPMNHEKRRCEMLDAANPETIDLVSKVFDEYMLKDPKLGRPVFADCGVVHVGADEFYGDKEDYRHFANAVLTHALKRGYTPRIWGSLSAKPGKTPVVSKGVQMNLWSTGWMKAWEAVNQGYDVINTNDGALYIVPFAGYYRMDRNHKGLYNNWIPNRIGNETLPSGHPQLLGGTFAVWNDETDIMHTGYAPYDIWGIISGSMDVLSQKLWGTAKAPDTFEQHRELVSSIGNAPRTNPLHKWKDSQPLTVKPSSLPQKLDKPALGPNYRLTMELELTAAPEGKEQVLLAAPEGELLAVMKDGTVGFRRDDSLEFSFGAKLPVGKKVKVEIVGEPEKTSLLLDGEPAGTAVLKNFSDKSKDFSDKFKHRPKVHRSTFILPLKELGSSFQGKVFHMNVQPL

## Nc1nc2c(ncn2[C@@H]2O[C@H](COP(=O)(O)OP(=O)(O)O)[C@@H](O)[C@H]2O)c(=O)[nH]1 [GDP]
Am2136 WT; Am2136 WT, fluorescence ex 286 nm/em 336 nm
  Kd: 116 µM
Am2136 WT; WT dialyzed (EDTA treated)
  Kd: 114 ± 5.22 µM
Am2136 WT; WT dialyzed + Ca^2+
  Kd: 117 ± 4.37 µM
Am2136 WT; WT dialyzed + Mg^2+
  Kd: 118 ± 5.85 µM
Am2136 Y327F+Y331F
  Vmax: 473 ± 6 µmol/min

From paper PMC9673926, “Nucleotide binding as an allosteric regulatory mechanism for Akkermansia muciniphila β-N-acetylhexosaminidase Am2136” (Gut Microbes, 2022)
